We go through 2 compounds from patent US10473667B2, “Methods apparatuses and systems for detecting and quantifying phosphoproteins” (Oregon Health & Science University, priority 2012, dated 2019).

The subject of experiment [1] is STAT5*. As to the kind of experiment: QD probe assay for STAT5* in whole tumor cells. Particulars: tumor cells treated with Gleevec vs control (untreated) tumor cells, FIGS. 9A-9B. The format is cell-based. From the text:
Briefly; control tumor cells and tumor cells treated with Gleevec™ were processed (fixing, permeabilization, blocking, washing, etc.) to specifically bind optimized concentrations of QD-anti-STAT5* antibody probes to STAT5* protein kinase. After washing, the cells were imaged in multiple slices using the imaging techniques described above, covering the entire 3D space of the cells. QD probe bound to the cells was then compiled and projected on the cell for quantification.

Experiment [2] has as its system STAT5*. As to the kind of experiment: QD-STAT5* / QD-pSTAT5 probe assay in K562 CML cells. The format is cell-based. The settings on record: clonal K562 CML cells, FIG. 11A.
Excerpt: Relative amounts of bound QD probes in each condition were estimated using the algorithms described above.
An epifluorescent microscope was used to acquire images of cells labeled with QD-pCRKL and QD-pSTAT5 probes, including are digital images of tumor cells (FIG. 10A), tumor cells treated with dasatinib (FIG. 10B), and control cells with antibody omitted (FIG. 10C), Average phosphoprotein levels were computed as the average number of QD probes/cell.

Regarding `Cc1ccc(NC(=O)c2ccc(CN3CCN(C)CC3)cc2)cc1Nc1nccc(-c2cccnc2)n1` [Gleevec™, imatinib], the “STAT5* activation (QD-anti-STAT5* probe binding)” value in the experiment with STAT5* [1] was “marked decrease in STAT5* activation”.

With `CC[C@H](C)C(=O)O[C@H]1C[C@@H](C)C=C2C=C[C@H](C)[C@H](CC[C@@H]3C[C@@H](O)CC(=O)O3)[C@H]21` [lovastatin], in the experiment with STAT5* [2], the “heterogeneity in pSTAT5 activity (SD of QDs/cell)” value is reported as “reduced”.
